According to PubChem BioAssay AID1963433 (Molecular Pharmacology Branch, DTP, NCI, 2024):
Values belong to the molecule of their own block, whether it stands above or below them.

System: 772245-204-R-J1-PDC complex spheroid growth
Assay: Anticancer human tumor 772245-204-R-J1-PDC patient-derived rhabdomyosarcoma cell line growth inhibition [Asc]
Settings: for IC50: curve of first compound; for viability, T/C: stronger effect = lower value
Procedure: Multicellular complex tumor spheroid response to apoptosis pathway targeting inhibitors Alrizomadlin, Pelcitoclax, and Dasminapant in combination with a variety of drugs and investigational agents in selected tumor cell lines
The MDM2 inhibitor alrizomadlin, the Bcl-2/Bcl-xL inhibitor pelcitoclax, and the IAPs inhibitor dasminapant were evaluated both individually and in combination with standard of care and investigational anticancer small molecules within a complex spheroid model of solid tumors. . Complex spheroids include a stromal component modeled by human endothelial cells (HUVEC) and fibroblasts modeled by human mesenchymal stem cells (MSCs). The concentration ranges selected for each drug and investigational agent were based upon clinically achievable concentrations if the clinical Cmax of the agent was known.
Compounds. The drugs and investigational agents: alrizomadlin (APG-115; NSC831270), pelcitoclax (APG-1252; NSC835773), dasminapant (APG-1387;NSC834197), TAK-243 (NSC785004), copanlisib (NSC809693), olaparib (NSC753686), talazoparib (NSC767125), cobimetinib (NSC 768068), eltanexor (KPT-8602, NSC 794443), abemaciclib (NSC 768073), sotorasib (NSC818433), adagrasib (NSC 831453), MRTX-1133 (NSC 836407), Iadademestat (ORY1001, NSC 806812), and RMC-4630 (NSC839698), were obtained from the NCI Developmental Therapeutics Program Chemical Repository. The FDA-approved anticancer drug set is available from the Developmental Therapeutics Program at https://dtp.cancer.gov/organization/dscb/obtaining/available plates.htm. […] The stock solutions were prepared in dimethyl sulfoxide (DMSO, Sigma-Aldrich, St. Louis, MO, cat. D2650) at 800-fold the tested concentration and stored at -70 degrees C prior to their use. All drugs and investigational agents were tested over a range starting from a high concentration at or near the clinical Cmax and decreasing in half-log increments. If the clinical Cmax for an agent had not been determined, the highest concentration tested was 10 microM.
The patient-derived cancer (PDC) cell lines include five colon adenocarcinomas: 186277-243-T-J2-PDC, 616215-338-R-J1-PDC, 439559-082-T-J2-PDC, 463943-066-T-J2-PDC, and 519858-162-T-J1-PDC; three pancreatic carcinomas: 323965-272-R-J2-PDC, 521955-158-R6-J3-PDC, and 521955-158-R2-J5-PDC; two uterine sarcomas: 327498-152-R-J2-PDC and 993429-296-R-J1-PDC; two rhabdomyosarcomas: 755483-174-R-J1-PDC and 772245-204-R-J1-PDC; two soft tissue sarcomas: 126254-015-R-J1-PDC and 494315-158-R-J1-PDC; two malignant fibrous histiocytomas: 317291-083-R-J1-PDC and 596521-263-R-J1-PDC; two breast carcinomas: 171881-019-R-J1-PDC and 885512-296-R-J2-PDC; and one ovarian carcinoma: 6556581-035-R-J-PDC were obtained from the NCI PDMR, (https://pdmr.cancer.gov). The established cell lines HSSY-2 synovial sarcoma (RRID:CVCL 8719), SYO-1 synovial sarcoma (RRID:CVCL_7146), MPNST malignant peripheral neural sheath tumor were obtained from the Sloan Kettering Institute. The following established cell lines were purchased from the American Type Culture Collection (ATCC, Manassas, VA), Sor the received from the NCI repository:, PANC-1 pancreatic carcinoma (CRL-1469, RRID:CVCL_0480), OVCAR-5 ovarian carcinoma (RRID:CVCL_1628), OVCAR-8 ovarian carcinoma (RRID:CVCL_1629), , MCF-7 breast carcinoma (CRL-12584, RRID:CVCL_0031), MDA-MB-231 breast carcinoma (CRL-12532, RRID:CVCL_0062), NCI-H1876 small cell lung carcinoma (CRL-5902, RRID:CVCL_1503), NCI-H510A small cell lung carcinoma (HTB-184, RRID:CVCL_1565), NCI-H1417 (CRL-5869, RRID:CVCL_1469), and NCI-H196 small cell lung carcinoma (CRL-5823, RRID:CVCL_1509). Dr. Peter Houghton (Greehey Children's Cancer Research Institute, University of Texas Health Science Center, San Antonio, TX) provided Rh-18 rhabdomyosarcoma (RRID:CVCL_1659). Pooled donor human umbilical vein endothelial cells (HUVEC, Lonza, cat. CC-2519) and human mesenchymal stem cells (hMSC, Lonza, cat. PT-2501) were purchased from Lonza (Walkersville, MD).
Cell Culture. […]

[1] = second compound 0.03 µM, first compound 0.00316 µM
[2] = second compound 0.03 µM, first compound 0.01 µM
[3] = second compound 0.03 µM, first compound 0.0316 µM
[4] = second compound 0.03 µM, first compound 0.1 µM
[5] = second compound 0.0949 µM, first compound 0.00316 µM
[6] = second compound 0.0949 µM, first compound 0.01 µM
[7] = second compound 0.0949 µM, first compound 0.0316 µM
[8] = second compound 0.0949 µM, first compound 0.1 µM
[9] = second compound 0.3 µM, first compound 0.00316 µM
[10] = second compound 0.3 µM, first compound 0.01 µM
[11] = second compound 0.3 µM, first compound 0.0316 µM
[12] = second compound 0.3 µM, first compound 0.1 µM
[13] = second compound 0.949 µM, first compound 0.00316 µM
[14] = second compound 0.949 µM, first compound 0.01 µM
[15] = second compound 0.949 µM, first compound 0.0316 µM
[16] = second compound 0.949 µM, first compound 0.1 µM
[17] = second compound 3 µM, first compound 0.00316 µM
[18] = second compound 3 µM, first compound 0.01 µM
[19] = second compound 3 µM, first compound 0.0316 µM
[20] = second compound 3 µM, first compound 0.1 µM
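Note: compound exposure lasted seven days.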
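Throughout, for viability, T/C: 100% = DMSO vehicle control viability.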

IC50 (second compound 0.03 µM): > 1 µM
IC50 (second compound 0.0949 µM): > 1 µM
IC50 (second compound 0.3 µM): > 1 µM
IC50 (second compound 0.949 µM): > 1 µM
IC50 (second compound 3 µM): > 1 µM
SMILES: CCN1CCN(Cc2ccc(Nc3ncc(F)c(-c4cc(F)c5nc(C)n(C(C)C)c5c4)n3)nc2)CC1 + CCN1C(C(=O)NC23CCC(C(=O)O)(CC2)CC3)C(c2cccc(Cl)c2F)C2(C(=O)Nc3cc(Cl)ccc32)C12CCCCC2
viability, T/C [1]: 100%
viability, T/C [2]: 97.4%
viability, T/C [3]: 103%
viability, T/C [4]: 110%
viability, T/C (second compound 0.03 µM, first compound 0.316 µM): 114%
viability, T/C (second compound 0.03 µM, first compound 1 µM): 116%
viability, T/C [5]: 99.5%
viability, T/C [6]: 110%
viability, T/C [7]: 101%
viability, T/C [8]: 111%
viability, T/C (second compound 0.0949 µM, first compound 0.316 µM): 114%
viability, T/C (second compound 0.0949 µM, first compound 1 µM): 116%
viability, T/C [9]: 106%
viability, T/C [10]: 111%
viability, T/C [11]: 122%
viability, T/C [12]: 103%
viability, T/C (second compound 0.3 µM, first compound 0.316 µM): 102%
viability, T/C (second compound 0.3 µM, first compound 1 µM): 131%
viability, T/C [13]: 94.3%
viability, T/C [14]: 93.4%
viability, T/C [15]: 100%
viability, T/C [16]: 102%
viability, T/C (second compound 0.949 µM, first compound 0.316 µM): 92.9%
viability, T/C (second compound 0.949 µM, first compound 1 µM): 96%
viability, T/C [17]: 77.9%
viability, T/C [18]: 84.7%
viability, T/C [19]: 85.5%
viability, T/C [20]: 89.9%
viability, T/C (second compound 3 µM, first compound 0.316 µM): 80.1%
viability, T/C (second compound 3 µM, first compound 1 µM): 121%

IC50 (second compound 0.03 µM): 0.0755 µM
IC50 (second compound 0.0949 µM): 0.0273 µM
IC50 (second compound 0.3 µM): 0.0473 µM
IC50 (second compound 0.949 µM): 0.0282 µM
IC50 (second compound 3 µM): 0.0145 µM
SMILES: NC(=O)C(=Cn1cnc(-c2cc(C(F)(F)F)cc(C(F)(F)F)c2)n1)c1cncnc1 + CCN1C(C(=O)NC23CCC(C(=O)O)(CC2)CC3)C(c2cccc(Cl)c2F)C2(C(=O)Nc3cc(Cl)ccc32)C12CCCCC2
viability, T/C (second compound 0.03 µM, first compound 0.000949 µM): 88.9%
viability, T/C (second compound 0.03 µM, first compound 0.003 µM): 96.5%
viability, T/C (second compound 0.03 µM, first compound 0.00949 µM): 97.1%
viability, T/C (second compound 0.03 µM, first compound 0.03 µM): 92.4%
viability, T/C (second compound 0.03 µM, first compound 0.0949 µM): 38.5%
viability, T/C (second compound 0.03 µM, first compound 0.3 µM): 40.5%
viability, T/C (second compound 0.0949 µM, first compound 0.000949 µM): 103%
viability, T/C (second compound 0.0949 µM, first compound 0.003 µM): 93.1%
viability, T/C (second compound 0.0949 µM, first compound 0.00949 µM): 88.5%
viability, T/C (second compound 0.0949 µM, first compound 0.03 µM): 44.5%
viability, T/C (second compound 0.0949 µM, first compound 0.0949 µM): 37.2%
viability, T/C (second compound 0.0949 µM, first compound 0.3 µM): 22.6%
viability, T/C (second compound 0.3 µM, first compound 0.000949 µM): 94.7%
viability, T/C (second compound 0.3 µM, first compound 0.003 µM): 105%
viability, T/C (second compound 0.3 µM, first compound 0.00949 µM): 85.2%
viability, T/C (second compound 0.3 µM, first compound 0.03 µM): 62.8%
viability, T/C (second compound 0.3 µM, first compound 0.0949 µM): 31.1%
viability, T/C (second compound 0.3 µM, first compound 0.3 µM): 30.4%
viability, T/C (second compound 0.949 µM, first compound 0.000949 µM): 92.8%
viability, T/C (second compound 0.949 µM, first compound 0.003 µM): 88.8%
viability, T/C (second compound 0.949 µM, first compound 0.00949 µM): 84.7%
viability, T/C (second compound 0.949 µM, first compound 0.03 µM): 46.4%
viability, T/C (second compound 0.949 µM, first compound 0.0949 µM): 28.8%
viability, T/C (second compound 0.949 µM, first compound 0.3 µM): 18.1%
viability, T/C (second compound 3 µM, first compound 0.000949 µM): 69.9%
viability, T/C (second compound 3 µM, first compound 0.003 µM): 66.9%
viability, T/C (second compound 3 µM, first compound 0.00949 µM): 69.5%
viability, T/C (second compound 3 µM, first compound 0.03 µM): 17.7%
viability, T/C (second compound 3 µM, first compound 0.0949 µM): 10.8%
viability, T/C (second compound 3 µM, first compound 0.3 µM): 15.9%

IC50 (second compound 0.03 µM): > 0.1 µM
IC50 (second compound 0.0949 µM): > 0.1 µM
IC50 (second compound 0.3 µM): > 0.1 µM
IC50 (second compound 0.949 µM): > 0.1 µM
IC50 (second compound 3 µM): > 0.1 µM
SMILES: NC1CCC(NC2CC2c2ccccc2)CC1 (stereo not given) + CCN1C(C(=O)NC23CCC(C(=O)O)(CC2)CC3)C(c2cccc(Cl)c2F)C2(C(=O)Nc3cc(Cl)ccc32)C12CCCCC2
viability, T/C (second compound 0.03 µM, first compound 0.000316 µM): 103%
viability, T/C (second compound 0.03 µM, first compound 0.001 µM): 94.6%
viability, T/C [1]: 100%
viability, T/C [2]: 86.5%
viability, T/C [3]: 108%
viability, T/C [4]: 98.1%
viability, T/C (second compound 0.0949 µM, first compound 0.000316 µM): 96.3%
viability, T/C (second compound 0.0949 µM, first compound 0.001 µM): 96.3%
viability, T/C [5]: 90.3%
viability, T/C [6]: 92.5%
viability, T/C [7]: 84.9%
viability, T/C [8]: 93.5%
viability, T/C (second compound 0.3 µM, first compound 0.000316 µM): 106%
viability, T/C (second compound 0.3 µM, first compound 0.001 µM): 80.2%
viability, T/C [9]: 101%
viability, T/C [10]: 85.5%
viability, T/C [11]: 111%
viability, T/C [12]: 89.8%
viability, T/C (second compound 0.949 µM, first compound 0.000316 µM): 95.2%
viability, T/C (second compound 0.949 µM, first compound 0.001 µM): 80.8%
viability, T/C [13]: 83.6%
viability, T/C [14]: 86.9%
viability, T/C [15]: 95.1%
viability, T/C [16]: 96.3%
viability, T/C (second compound 3 µM, first compound 0.000316 µM): 70.2%
viability, T/C (second compound 3 µM, first compound 0.001 µM): 65.8%
viability, T/C [17]: 73.2%
viability, T/C [18]: 77.9%
viability, T/C [19]: 73.1%
viability, T/C [20]: 75.4%
